Measured values taken from patent publication US10975123B2, “Mutant Akt-specific capture agents, compositions, and methods of using and making” (California Institute of Technology, priority 2014, dated 2021).
Entries after “also recorded” stand apart in the source; their conditions may differ. Where a SMILES comes first, the peptide text is derived from it. [ ]: non-standard residue; d: D form.

How the values were obtained:
[1] = target: T1, E17K PH Domain binding to PIP3 (Homo sapiens, UniProt P31749, E17K); experiment: PIP3 agarose inhibition assay, E17K; type: biochemical; settings: ligand 2.38 μM (10x protein), protein 234 nM, western blot, in words
T1 construct: 2 μg of either wildtype or mutant PH Domain-GFP protein (234 nM); made in house; host or cells: HEK-293-6E (used as cell lysate, not purified)
Excerpt: The yleaf ligand, the biligand, and the triligand were all tested for their ability to block the E17K PHD binding with PIP3. For this test, PIP3-coated resin (Echelon Biosciences) was used to mimic the PHD interaction with the cell membrane, and could be used to bind the protein as in an immunoprecipitation assay^22. The presence of an effective blocking compound would reduce the ability of the resin to capture the protein, and would thus appear as a diminished signal in the corresponding western blot assay. A control lane containing no capture agent was used to show baseline binding of the protein to the PIP3 resin. […] In an expanded study, we compared the amount of E17K and WT PH domain binding relative to the amount of added triligand (FIG. 5e).
PIP3 Agarose beads (Echelon) were used to detect for the inhibition of PH Domain binding to its substrate, PIP3, upon incubation with the anchor candidate peptide ligands. To test the inhibition of each of the ligands, anchor biligand and triligand, 20 μL of resin slurry was added to each of four tubes and washed three times with 1×TBS. Protein, 2 μg (234 nM) of E17K mutant, was preincubated for one hour at room temperature with either DMSO (no protein blank), anchor, biligand or triligand at 2.38 μM (10× in relation to protein) in 200 μL of 1×TBS. For the control, mutant PH Domain was incubated with 1×TBS and 1 μL […] to mimic the ligand conditions. These protein samples were then added to PIP3 agarose in a Spin-X tube and incubated at room temperature for two hours. The resin was washed three times with 1×TBS with 0.25% IGEPAL CA-630, spun out to dry completely, then denatured with 50 μL 3×SDS gel loading buffer for 10 min at 95° C. The gel loading buffer was spun out of the resin and detected via western blot as per the Streptavidin-Agarose Pulldowns. Inhibition was indicated by a decrease in the amount of PH Domain that was pulled down by the resin.
Expanded inhibition blots with either WT of E17K mutant protein were performed in a similar fashion. Twelve tubes of 20 μL of PIP3 agarose were washed three times with 1×TBS. 2 μg of either wildtype or mutant PH Domain-GFP protein (234 nM) in 200 uL 1×TBS were preincubated for 30 minutes with differing concentrations of triligand: 0.1 eq (23.4 nM), 1 eq (234 nM), 10 eq (2.34 μM), 100 eq (23.4 μM), and 1000 eq (234 μM). The protein and triligand solutions were then incubated with the PIP3 resin for 2 hours at room temperature. The resins were washed, eluted, and blotted as per all PH Domain western blots.

[2] = target: T2, E17K mutant PH Domain (PHD) of Akt1 (Homo sapiens, UniProt P31749, E17K); experiment: Streptavidin-agarose immunoprecipitation (pulldown), E17K; type: binding; settings: streptavidin agarose, 1xTBS, western blot band size, in words
T2 construct: The first 124 N-terminal amino acids from full length Akt1 were used as the PH Domain DNA; made in house; host or cells: E. coli
Method: Four biligand candidates were chosen based on their hydrophobicity and sequence homology using principal component analysis (FIG. 25). Biligands were synthesized by coupling the 2° ligand onto Rink Amide Resin on the Titan peptide synthesizer. The amide group on the end of the Lys(N3) was capped by shaking the resin with 2 mL acetic anhydride, 2 mL NMP and 0.5 mL DIEA for 3×10 minutes, then washed with NMP. FMOC-Propargylglycine-Otbu (Pra) was clicked onto the Lys(N3) on the 2° ligand by incubating 2 eq of the Pra amino acid with 2 eq CuI and 2 eq ascorbic acid with 1 eq azide on resin in 20% piperidine/NMP for 3 hours. The resin was washed 5×4 mL with a chelating solution of 1 g sodium diethyldithiocarbamate in 20 mL NMP and 1 mL DIEA. The anchor was then built onto the 2° ligand on bead, and an N-terminal PEG5-biotin tag were added. Assays were performed exactly as for the anchor ligands, except for two key differences. The biligand assays were done with 6 ug of GST-tagged PHD protein, instead of the untagged PHD that was used in the anchor pulldowns. The pull-downs were also conducted out of 1% serum in 1×TBS, as opposed to just 1×TBS.
Pulldown assays were done on Streptavidin Agarose resin from Invitrogen. The resin was incubated with N-terminal biotinylated anchor peptide candidates identified via the ClusterLigand sequence analysis. The anchor candidate coated beads were then incubated with either the wildtype or mutant protein to compare the selectivity of the ligands, as well as the binding ability. The bound protein was eluted and western blotted to compare the amount of protein present for each sample.
Relative protein band sizes were analyzed to compare binding between the anchor candidates and were used to determine selectivity for either wildtype or mutant PH Domain (FIG. 11). […] Both of these ligands look fairly selective for their respective PH Domain.

T1 sequence (P31749 5-108 E17K limits assumed): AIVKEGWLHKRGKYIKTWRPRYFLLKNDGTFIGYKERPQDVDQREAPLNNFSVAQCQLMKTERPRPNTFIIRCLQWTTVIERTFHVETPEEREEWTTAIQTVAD
T2 sequence (P31749 1-124 E17K): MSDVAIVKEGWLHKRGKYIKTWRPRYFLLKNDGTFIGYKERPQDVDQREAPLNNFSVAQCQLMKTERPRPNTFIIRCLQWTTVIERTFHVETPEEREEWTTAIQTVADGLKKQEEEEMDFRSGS

## CC(C)C[C@@H](NC(=O)[C@H](N)Cc1ccc(O)cc1)C(=O)N[C@H](CCC(=O)O)C(=O)N[C@H](C)C(=O)N[C@H](Cc1ccccc1)C(N)=O [yleaf] (H-[dY][dL][dE][dA][dF]-NH2; N-terminus assumed)
[1]
  inhibition of E17K PH Domain binding to PIP3-coated resin: did not exhibit evidence of inhibition; also recorded: no change in E17K binding ability
[2]
  pulldown of E17K mutant PH Domain by biotinylated anchor candidates: a distinctively stronger binding to the E17K protein relative to the WT; also recorded: the greatest binding to the mutant
